From patent US11497212B2, “Substituted thiophenyl uracils, salts thereof and the use thereof as herbicidal agents” (Syngenta Crop Protection AG, priority 2017, dated 2022)

Columns and labels:
Format in all cases: in vivo
Triticum aestivum = experiment: Crop compatibility post-emergence (greenhouse pot trial)
Experimental: (§1) Seeds of mono- and dicotyledonous weed plants and crop plants are laid out in sandy loam soil in plastic or wood-fiber pots, covered with earth and grown under controlled growth conditions in a greenhouse. 2 to 3 weeks after sowing, the trial plants are treated at the one-leaf stage. The compounds of the invention formulated in the form of wettable powders (WP) or emulsion concentrates (EC) were then sprayed onto the green parts of the plant as an aqueous suspension or emulsion with addition of 0.5% additive at a water application rate equivalent to 600 L/ha. After the trial plants had stood for about 3 weeks in the greenhouse, under optimal growth conditions, the effect of the preparations was scored visually by comparison with untreated controls. For example, 100% efficacy=plants have died, 0% efficacy=like control plants.
(§2) Crop plant compatibilities were also scored correspondingly.
(§3) The effects observed are reported here on selected crop plants by comparison with the untreated controls (values in %).

Matricaria inodora = experiment: Herbicidal action post-emergence (greenhouse pot trial); details: application rate 20 g/ha, scored visually after about 3 weeks vs untreated controls
Experimental: as §1, with “plants. Tables A1 to A15 below show the efficacies of selected compounds of the general formula (I) according to tables I.1 to I.60 on various harmful plants and an application rate corresponding to 80 g/ha or lower that were obtained by the aforementioned trial method.” for “plants.”

Setaria viridis = experiment: as above; details: application rate 20 g/ha, scored visually after about 3 weeks vs untreated controls
Experimental: as §1, with “plants. Tables A1 to A15 below show the efficacies of selected compounds of the general formula (I) according to tables I.1 to I.60 on various harmful plants and an application rate corresponding to 80 g/ha or lower that were obtained by the aforementioned trial method.” for “plants.”

Digitaria sanguinalis = experiment: as above; details: application rate 20 g/ha
Experimental: as §1, with “plants. Tables A1 to A15 below show the efficacies of selected compounds of the general formula (I) according to tables I.1 to I.60 on various harmful plants and an application rate corresponding to 80 g/ha or lower that were obtained by the aforementioned trial method.” for “plants.”

Abutilon theophrasti = experiment: as above; details: application rate 20 g/ha, scored visually after about 3 weeks vs untreated controls
Experimental: as §1, with “plants. Tables A1 to A15 below show the efficacies of selected compounds of the general formula (I) according to tables I.1 to I.60 on various harmful plants and an application rate corresponding to 80 g/ha or lower that were obtained by the aforementioned trial method.” for “plants.”

Polygonum convolvulus = experiment: as above; details: application rate 20 g/ha, scored visually after about 3 weeks vs untreated controls
Experimental: as §1, with “plants. Tables A1 to A15 below show the efficacies of selected compounds of the general formula (I) according to tables I.1 to I.60 on various harmful plants and an application rate corresponding to 80 g/ha or lower that were obtained by the aforementioned trial method.” for “plants.”

Echinochloa crus-galli = experiment: as above; details: application rate 20 g/ha, scored visually after about 3 weeks vs untreated controls
Experimental: as §1, with “plants. Tables A1 to A15 below show the efficacies of selected compounds of the general formula (I) according to tables I.1 to I.60 on various harmful plants and an application rate corresponding to 80 g/ha or lower that were obtained by the aforementioned trial method.” for “plants.”

Amaranthus retroflexus = experiment: as above; details: application rate 20 g/ha, scored visually after about 3 weeks vs untreated controls
Experimental: as §1, with “plants. Tables A1 to A15 below show the efficacies of selected compounds of the general formula (I) according to tables I.1 to I.60 on various harmful plants and an application rate corresponding to 80 g/ha or lower that were obtained by the aforementioned trial method.” for “plants.”

Viola tricolor = experiment: as above; details: application rate 20 g/ha
Experimental: as §1, with “plants. Tables A1 to A15 below show the efficacies of selected compounds of the general formula (I) according to tables I.1 to I.60 on various harmful plants and an application rate corresponding to 80 g/ha or lower that were obtained by the aforementioned trial method.” for “plants.”

Pharbitis purpurea = experiment: as above; details: application rate 20 g/ha
Experimental: as §1, with “plants. Tables A1 to A15 below show the efficacies of selected compounds of the general formula (I) according to tables I.1 to I.60 on various harmful plants and an application rate corresponding to 80 g/ha or lower that were obtained by the aforementioned trial method.” for “plants.”

Veronica persica = experiment: as above; details: application rate 20 g/ha
Experimental: as §1, with “plants. Tables A1 to A15 below show the efficacies of selected compounds of the general formula (I) according to tables I.1 to I.60 on various harmful plants and an application rate corresponding to 80 g/ha or lower that were obtained by the aforementioned trial method.” for “plants.”

Oryza sativa = experiment: Crop compatibility post-emergence (greenhouse pot trial)
Experimental: as §1, §2, §3

Stellaria media = experiment: Herbicidal action post-emergence (greenhouse pot trial); details: application rate 20 g/ha, scored visually after about 3 weeks vs untreated controls
Experimental: as §1, with “plants. Tables A1 to A15 below show the efficacies of selected compounds of the general formula (I) according to tables I.1 to I.60 on various harmful plants and an application rate corresponding to 80 g/ha or lower that were obtained by the aforementioned trial method.” for “plants.”

Zea mays = experiment: Crop compatibility post-emergence (greenhouse pot trial)
Experimental: as §1, §2, §3

SMILES | Triticum aestivum (Efficacy in %) (Triticum aestivum; application rate 20 g/ha) [%] | Matricaria inodora (Efficacy in %) (Matricaria inodora) [%] | Setaria viridis (Efficacy in %) (Setaria viridis) [%] | Digitaria sanguinalis (Efficacy in %) (Digitaria sanguinalis) [%] | Abutilon theophrasti (Efficacy in %) (Abutilon theophrasti) [%] | Polygonum convolvulus (Efficacy in %) (Polygonum convolvulus) [%] | Echinochloa crus-galli (Efficacy in %) (Echinochloa crus-galli) [%] | Amaranthus retroflexus (Efficacy in %) (Amaranthus retroflexus) [%] | Viola tricolor (Efficacy in %) (Viola tricolor) [%] | Pharbitis purpurea (Efficacy in %) (Pharbitis purpurea) [%] | Veronica persica (Efficacy in %) (Veronica persica) [%] | Triticum aestivum (Efficacy in %) (Triticum aestivum; application rate 5 g/ha) [%] | Oryza sativa (Efficacy in %) (Oryza sativa; application rate 5 g/ha) [%] | Stellaria media (Efficacy in %) (Stellaria media) [%] | Oryza sativa (Efficacy in %) (Oryza sativa; application rate 20 g/ha) [%] | Zea mays (Efficacy in %) (Zea mays; application rate 80 g/ha) [%] | Zea mays (Efficacy in %) (Zea mays; application rate 20 g/ha) [%] | Zea mays (Efficacy in %) (Zea mays; application rate 5 g/ha) [%]
CCC(C)C(Sc1cc(-n2c(=O)cc(C(F)(F)F)n(C)c2=O)c(F)cc1Cl)C(=O)OCC1CCOC1 (stereo not shown) [I.5-72] | 20 | 90 | 80 | 100 | 100 | 90 | 90 | 100 | 100 | 100 | 100 | – | – | – | – | – | – | –
Cc1c(C(F)(F)F)n(C)c(=O)n(-c2cc(SCC(C)(C)C(=O)OCC3CCCO3)c(Cl)cc2F)c1=O (stereo not shown) [I.54-71] | – | – | 100 | 80 | 100 | 100 | 80 | 100 | 100 | 100 | 100 | 20 | 0 | 80 | – | – | – | –
CC(C)C(Sc1cc(-n2c(=O)cc(C(F)(F)F)n(C)c2=O)c(F)cc1Cl)C(=O)OCC1CCOC1 (stereo not shown) [I.6-72] | – | 100 | 90 | 100 | 100 | 100 | 80 | 100 | 100 | 100 | 100 | 20 | – | 90 | – | – | – | –
CCC(C)C(Sc1cc(-n2c(=O)cc(C(F)(F)F)n(C)c2=O)c(F)cc1Cl)C(=O)OCC1CCCO1 (stereo not shown) [I.5-71] | 10 | 100 | 90 | 100 | 100 | 100 | 90 | 100 | 100 | 100 | 100 | – | – | 80 | – | – | – | –
CC(Sc1cc(-n2c(=O)cc(C(F)(F)F)n(C)c2=O)c(F)cc1Cl)C(=O)OCCOCc1ccccc1 (stereo not shown) [I.1-6] | – | 100 | 100 | 100 | 100 | 100 | 90 | 100 | 100 | 100 | 100 | – | 0 | 90 | – | – | – | –
CC(C)=C(Sc1cc(-n2c(=O)cc(C(F)(F)F)n(C)c2=O)c(F)cc1Cl)C(=O)OCC1CCOC1 (stereo not shown) [I.42-72] | 20 | 100 | 100 | 100 | 100 | 100 | 90 | 100 | 100 | 100 | 100 | – | – | 90 | – | – | – | –
CC(Sc1cc(-n2c(=O)cc(C(F)(F)F)n(C)c2=O)c(F)cc1Cl)C(=O)OCCCOCc1ccccc1 (stereo not shown) [I.1-30] | 20 | 100 | 100 | 100 | 100 | 100 | 100 | 100 | 100 | 100 | 100 | – | – | 90 | 0 | – | – | –
Cn1c(C(F)(F)F)cc(=O)n(-c2cc(SCC(C)(C)C(=O)NCC3CCCO3)c(Cl)cc2F)c1=O (stereo not shown) [I.48-221] | – | 80 | – | – | 100 | – | – | 90 | 100 | – | 100 | – | – | 100 | 10 | 20 | – | –
Cc1c(C(F)(F)F)n(C)c(=O)n(-c2cc(SCC(C)(C)C(=O)NCC3CCCO3)c(Cl)cc2F)c1=O (stereo not shown) [I.54-221] | 0 | 100 | – | – | 100 | 100 | – | 100 | – | 100 | 80 | – | – | 80 | 20 | – | 00 | –
CC(Sc1cc(-n2c(=O)cc(C(F)(F)F)n(C)c2=O)c(F)cc1Cl)C(=O)OC1CCSC1 (stereo not shown) [I.1-123] | 20 | 100 | 100 | 80 | 100 | 100 | 100 | 100 | 100 | 100 | 100 | – | – | 100 | – | – | – | –
CC(Sc1cc(-n2c(=O)cc(C(F)(F)F)n(C)c2=O)c(F)cc1Cl)C(=O)OCCOC(F)(F)F (stereo not shown) [I.1-41] | 20 | 90 | 100 | 100 | 100 | 100 | 100 | 100 | 100 | 100 | 100 | – | – | – | – | – | – | –
CCC(Sc1cc(-n2c(=O)c(C)c(C(F)(F)F)n(C)c2=O)c(F)cc1Cl)C(=O)NCC1CCCO1 (stereo not shown) [I.12-221] | 20 | 100 | – | – | 100 | 100 | – | 100 | 100 | – | 100 | – | – | 80 | 20 | – | – | 0
Cc1c(C(F)(F)F)n(C)c(=O)n(-c2cc(SCC(C)(C)C(=O)OCC3CCSC3)c(Cl)cc2F)c1=O (stereo not shown) [I.54-82] | – | – | – | – | 100 | – | – | 100 | 90 | – | 80 | 0 | – | – | 0 | – | – | 20
CCC(Sc1cc(-n2c(=O)cc(C(F)(F)F)n(C)c2=O)c(F)cc1Cl)C(=O)OCC1CCCS1 (stereo not shown) [I.2-81] | 20 | 100 | 100 | 100 | 100 | 100 | 100 | 100 | 100 | 100 | 100 | – | – | 100 | – | – | – | –
